Drawing on article PMC6934184, “Selective DNA-PKcs inhibition extends the therapeutic index of localized radiotherapy and chemotherapy” (The Journal of Clinical Investigation, 2019), this text covers inhibition for one molecule.

In the test the target is T1, EPHB4 (Homo sapiens, UniProt P54760).
T1 construct: purchased Thermo Fisher Scientific (Life Technologies) SelectScreen
Kind of test: SelectScreen Z'LYTE. Format: biochemical. The gist of the method:
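SelectScreen broad panel; activity (Z'LYTE, Adapta) plus binding formats. ATP: Km app for CSF1R Z'LYTE; 10 for CAMK1 Adapta. Readout = % per kinase.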

T1 sequence (P54760 16-987): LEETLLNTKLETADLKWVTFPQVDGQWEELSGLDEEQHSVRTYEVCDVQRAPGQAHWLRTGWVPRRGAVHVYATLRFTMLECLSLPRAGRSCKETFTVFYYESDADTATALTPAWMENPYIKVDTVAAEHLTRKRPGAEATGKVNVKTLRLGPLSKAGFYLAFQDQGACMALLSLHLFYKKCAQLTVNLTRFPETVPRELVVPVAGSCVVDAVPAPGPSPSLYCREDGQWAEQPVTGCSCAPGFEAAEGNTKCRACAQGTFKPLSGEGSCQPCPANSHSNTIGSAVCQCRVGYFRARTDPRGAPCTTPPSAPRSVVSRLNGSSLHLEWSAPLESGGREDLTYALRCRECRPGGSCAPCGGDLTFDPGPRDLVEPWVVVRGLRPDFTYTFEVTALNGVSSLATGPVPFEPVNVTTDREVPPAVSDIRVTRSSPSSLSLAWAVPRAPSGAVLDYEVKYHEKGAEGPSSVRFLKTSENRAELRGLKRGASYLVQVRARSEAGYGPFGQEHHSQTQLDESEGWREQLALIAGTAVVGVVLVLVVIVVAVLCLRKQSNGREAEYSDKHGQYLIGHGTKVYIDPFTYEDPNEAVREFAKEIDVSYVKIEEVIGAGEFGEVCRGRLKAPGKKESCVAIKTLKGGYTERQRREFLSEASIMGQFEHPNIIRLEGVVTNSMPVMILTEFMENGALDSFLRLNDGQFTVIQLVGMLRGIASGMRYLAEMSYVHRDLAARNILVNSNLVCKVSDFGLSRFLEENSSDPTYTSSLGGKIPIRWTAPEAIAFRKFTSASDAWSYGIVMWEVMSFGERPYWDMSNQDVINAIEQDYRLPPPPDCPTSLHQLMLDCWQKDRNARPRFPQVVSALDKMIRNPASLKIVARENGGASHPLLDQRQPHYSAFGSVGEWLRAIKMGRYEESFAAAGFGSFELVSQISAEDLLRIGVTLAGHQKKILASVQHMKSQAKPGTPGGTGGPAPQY

Take `CN(C(=O)CN1CCOCC1)c1ccc2sc3c(-c4cccc5c(=O)cc(N6CC7CCC(C6)O7)oc45)cccc3c2c1` [NU5455]: the inhibition (commonly the drop in the measured response relative to a control, in per cent) at 1 µM was -5.3%.
